Drawing on patent US8217029B2, “Oxazolidinone antibiotics” (Actelion Pharmaceuticals Ltd, priority 2007, dated 2012), this text covers MIC for 13 compounds.

In brackets after ≈: the same amount, converted by molar mass.

This assay concerns S aureus A798. The assay is described as follows: Minimal inhibitory concentration (MIC), microdilution method in cation-adjusted Mueller-Hinton Broth following NCCLS guidelines. The class given is cell-based. The settings on record: pH of test medium 7.2-7.3. The protocol: These assays have been performed following the description given in “Methods for dilution Antimicrobial Susceptibility Tests for Bacteria that Grow Aerobically, 4th ed.; Approved standard: NCCLS Document M7-A4; National Committee for Clinical Laboratory Standards Villanova, Pa., USA, 1997”. Minimal inhibitory concentrations (MICs; mg/l) were determined in cation-adjusted Mueller-Hinton Broth by a microdilution method following NCCLS guidelines (National Committee for Clinical Laboratory Standards. Methods for Dilution Antimicrobial Susceptibility). The pH of the test medium was 7.2-7.3. All Example compounds were tested against several Gram positive and Gram negative bacteria.
In general terms: In broth dilution the organism is exposed to a series of concentrations in liquid medium.

As for `COc1ccc2nccc(N3CCN(C[C@@H]4CN(c5ccc(N6CCCC6)cc5)C(=O)O4)CC3)c2n1` [Example 23, (R)-5-[4-(6-Methoxy-[1,5]naphthyridin-4-yl)-piperazin-1-ylmethyl]-3-(4-pyrrolidin-1-yl-phenyl)-oxazolidin-2-one], the MIC is 2 µg/mL (≈ 4.09 µM).

Take `COc1cccc(N2C[C@@H](CN3CCN(c4ccnc5ccc(OC)nc45)CC3)OC2=O)c1` [Example 24, (R)-5-[4-(6-Methoxy-[1,5]naphthyridin-4-yl)-piperazin-1-ylmethyl]-3-(3-methoxy-phenyl)-oxazolidin-2-one]: it took 0.25 µg/mL (≈ 0.556 µM) to inhibit growth (MIC). Against the preceding compound, the MIC is about 8-fold lower.

On to `CCCc1ccc(N2C[C@@H](CN3CCN(c4ccnc5ccc(OC)nc45)CC3)OC2=O)cc1` [Example 25, (R)-5-[4-(6-Methoxy-[1,5]naphthyridin-4-yl)-piperazin-1-ylmethyl]-3-(4-propyl-phenyl)-oxazolidin-2-one], for which the MIC was no more than 0.031 µg/mL.

`CCc1ccc(N2C[C@@H](CN3CCN(c4ccnc5ccc(OC)nc45)CC3)OC2=O)cc1` [Example 26, (R)-3-(4-Ethyl-phenyl)-5-[4-(6-methoxy-[1,5]naphthyridin-4-yl)-piperazin-1-ylmethyl]-oxazolidin-2-one] displayed an MIC of no more than 0.031 µg/mL.

`COc1ccc2nccc(N3CCN(C[C@@H]4CN(c5ccc(C)c(C)c5)C(=O)O4)CC3)c2n1` [Example 27, (R)-3-(3,4-Dimethyl-phenyl)-5-[4-(6-methoxy-[1,5]naphthyridin-4-yl)-piperazin-1-ylmethyl]-oxazolidin-2-one] showed an MIC of no more than 0.031 µg/mL.

`COc1ccc2nccc(N3CCN(C[C@@H]4CN(c5ccc(OC)c(Cl)c5)C(=O)O4)CC3)c2n1` [Example 28, (R)-3-(3-Chloro-4-methoxy-phenyl)-5-[4-(6-methoxy-[1,5]naphthyridin-4-yl)-piperazin-1-ylmethyl]-oxazolidin-2-one] returned an MIC of 1 µg/mL (≈ 2.07 µM).

For `COc1ccc2nccc(N3CCN(C[C@@H]4CN(c5ccc(F)c(F)c5)C(=O)O4)CC3)c2n1` [Example 29, (R)-3-(3,4-Difluoro-phenyl)-5-[4-(6-methoxy-[1,5]naphthyridin-4-yl)-piperazin-1-ylmethyl]-oxazolidin-2-one], the MIC is no more than 0.031 µg/mL.

In turn, `COc1ccc2nccc(N3CCN(C[C@@H]4CN(c5ccc(F)c(C)c5)C(=O)O4)CC3)c2n1` [Example 30, (R)-3-(4-Fluoro-3-methyl-phenyl)-5-[4-(6-methoxy-[1,5]naphthyridin-4-yl)-piperazin-1-ylmethyl]-oxazolidin-2-one] displayed an MIC of 0.125 µg/mL (≈ 0.277 µM).

As for `COc1ccc2nccc(N3CCN(C[C@@H]4CN(c5ccc(Br)c(C)c5)C(=O)O4)CC3)c2n1` [Example 31, (R)-3-(4-Bromo-3-methyl-phenyl)-5-[4-(6-methoxy-[1,5]naphthyridin-4-yl)-piperazin-1-ylmethyl]-oxazolidin-2-one], the MIC was no more than 0.031 µg/mL.

`COc1ccc2nccc(N3CCN(C[C@@H]4CN(c5ccc(C)c(Br)c5)C(=O)O4)CC3)c2n1` [Example 32, (R)-3-(3-Bromo-4-methyl-phenyl)-5-[4-(6-methoxy-[1,5]naphthyridin-4-yl)-piperazin-1-ylmethyl]-oxazolidin-2-one] showed an MIC of no more than 0.031 µg/mL.

Turning to `COc1ccc2nccc(N3CCN(C[C@@H]4CN(c5ccc(OC)c(C(F)(F)F)c5)C(=O)O4)CC3)c2n1` [Example 33, (R)-5-[4-(6-Methoxy-[1,5]naphthyridin-4-yl)-piperazin-1-ylmethyl]-3-(4-methoxy-3-trifluoromethyl-phenyl)-oxazolidin-2-one], the MIC was determined as 4 µg/mL (≈ 7.73 µM).

Compound `COc1ccc2nccc(N3CCN(C[C@@H]4CN(c5cccc(N(C)C)c5)C(=O)O4)CC3)c2n1` [Example 34, (R)-3-(3-Dimethylamino-phenyl)-5-[4-(6-methoxy-[1,5]naphthyridin-4-yl)-piperazin-1-ylmethyl]-oxazolidin-2-one] showed an MIC of 0.125 µg/mL (≈ 0.27 µM).

Compound `COc1ccc2nccc(N3CCN(C[C@@H]4CN(c5ccc6c(c5)OCO6)C(=O)O4)CC3)c2n1` [Example 35, (R)-3-Benzo[1,3]dioxol-5-yl-5-[4-(6-methoxy-[1,5]naphthyridin-4-yl)-piperazin-1-ylmethyl]-oxazolidin-2-one] had an MIC of no more than 0.031 µg/mL.

As usually defined, the MIC is the lowest concentration that inhibits growth of the organism.
